Where a name gives a salt, the structure may show the parent alone.
What was measured:
[1] = Odor threshold and odor value of perfuming compounds (Tables 4 to 10)
[2] = Volatility of perfuming compounds (Tables 4 to 10), with top/middle/bottom note type; assay type: physicochemical
How it was run: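 Volatility is expressed in μg/l in air. Top notes are 70,000 to 100 μg/l, middle notes 99 to 50 μg/l, and bottom notes 49 to 0.1 μg/l. Compounds are grouped by olfactive family: watery, green, fruity, citrus, sweet, gourmand and woody.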

[3] = Log P (n-octanol/water) of perfuming compounds (Tables 4 to 10)
[4] = Table 8, perfuming compounds having a sweet note
[5] = Table 8, perfuming compounds having a sweet note, note type by volatility
[6] = perfuming compounds having a green note
[7] = Table 6, perfuming compounds having a fruity note
[8] = Table 6, perfuming compounds having a fruity note, note type by volatility
[9] = note type (Top/Middle/Bottom) by volatility, perfuming compounds having a green note
[10] = n-octanol/water, perfuming compounds having a green note
[11] = Table 9, perfuming compounds having a gourmand note, note type by volatility
[12] = Table 10, perfuming compounds having a woody note, note type by volatility

| Compound | Odor Threshold (μg/l air) [1, 6] | Volatility [2, 7] | Type [2, 8] | Type [2, 9] | Volatility (μg/l air) [2, 6] | Log P (n-octanol/water) [3, 7] | Log P (n-octanol/water) [3, 10] | further results |
| --- | --- | --- | --- | --- | --- | --- | --- | --- |
| SCc1ccco1 [2-FURANMETHANETHIOL] |  |  |  |  |  |  |  | Odor Threshold [1, 4]: 1.43E−09 μg/l air; Odor Value [1, 4]: 2.08E+13; Volatility [2, 4]: 29677.31 μg/l air; Type [2, 5]: Top; Log P (n-octanol/water) [3, 4]: 1.70 |
| CCCC(C)COC(=O)C(C)CCC (stereo not shown) [2-METHYLPENTYL 2-METHYLPENTANOATE] | 2.41E−01 μg/l air | 450.33 μg/l air | TOP (perfuming compounds having a volatility ranging from 70,000 to 100 μg/l in air are referred to as “top notes”) | Top | 450.33 μg/l air | 5.13 | 5.13 |  |
| COC(Cc1ccccc1)OC [(2,2-DIMETHOXYETHYL)BENZENE] | 4.55E−02 μg/l air |  |  | Top | 456.97 μg/l air |  | 2.10 |  |
| CC(=O)C(C)O (racemic) [(+−)-3-HYDROXY-2-BUTANONE] | 1.46E−02 μg/l air |  |  | Top | 33382.87 μg/l air |  | −1.03 | Odor Threshold [1, 4]: 1.46E−02 μg/l air; Odor Value [1, 4]: 2.28E+06; Odor Threshold ([1]; Table 9, gourmand note): 1.46E−02 μg/l air; Volatility [2, 4]: 33382.87 μg/l air; Type [2, 5]: Top; Volatility ([2]; Table 9, gourmand note): 33382.87 μg/l air; Type [2, 11]: Top; Log P (n-octanol/water) [3, 4]: −1.03; Log P (n-octanol/water) ([3]; Table 9, gourmand note): −1.03 |
| COC(OC)C(C)c1ccccc1 (stereo not shown) [1,1-DIMETHOXY-2-PHENYLPROPANE] | 1.42E−02 μg/l air |  |  | Top | 376.94 μg/l air |  | 2.50 |  |
| c1ccc(CCCc2ccccn2)cc1 [2-(3-PHENYLPROPYL)PYRIDINE] | 1.29E−06 μg/l air |  |  | Bottom | 3.83 μg/l air |  | 2.87 |  |
| CCC(C)C1(C)COC(C2CCC(C)=CC2C)OC1 (stereo not shown) |  |  |  |  |  |  |  | Odor Threshold ([1]; Table 10, woody note): 1.67E−03 μg/l air; Type [2, 12]: Bottom; Volatility ([2]; Table 10, woody note): 3.82 μg/l air; Log P (n-octanol/water) ([3]; Table 10, woody note): 6.50 |
| C=CCOC(=O)COc1ccccc1 [ALLYL PHENOXYACETATE] | 1.22E−03 μg/l air | 9.94 μg/l air | Bottom | Bottom | 9.94 μg/l air | 2.04 | 2.04 | Odor Threshold [1, 7]: 1.22E−03 μg/l air; Odor Value [1, 7]: 8.13E+03 |
| Cc1ccc(OCC=O)cc1 | 6.46E−05 μg/l air |  |  | Middle | 89.41 μg/l air |  | 1.99 |  |
| O=COCc1ccccc1 [BENZYL FORMATE] | 3.23E−01 μg/l air |  |  | Top | 1339.53 μg/l air |  | 1.76 |  |
| C=C(C)C1CC=C(C)CC1 (single isomer, unassigned; (+)) [(+)-LIMONENE] |  | 10216.93 μg/l air | TOP (perfuming compounds having a volatility ranging from 70,000 to 100 μg/l in air are referred to as “top notes”) |  |  | 5.40 |  | Odor Threshold (μg/l air) ([1]; Table 7, citrus note): 1.29E−01 μg/l air; Odor Value ([1]; Table 7, citrus note, equals volatility divided by odor threshold): 7.92E+04; Volatility (μg/l air) ([2]; Table 7, citrus note): 10216.93 μg/l air; Type ([2]; Table 7, citrus note, top, middle or bottom note): Top; Log P (n-octanol/water) ([3]; Table 7, citrus note): 5.40 |
| COc1ccc(CCC(C)=O)cc1 [4-(4-METHOXYPHENYL)-2-BUTANONE] |  | 5.58 μg/l air | Bottom |  |  | 2.06 |  | Odor Threshold [1, 7]: 5.88E−06 μg/l air; Odor Value [1, 7]: 9.49E+05; Odor Threshold [1, 4]: 5.88E−06 μg/l air; Odor Value [1, 4]: 9.49E+05; Odor Threshold ([1]; Table 9, gourmand note): 5.88E−06 μg/l air; Volatility [2, 4]: 5.58 μg/l air; Type [2, 5]: Bottom; Volatility ([2]; Table 9, gourmand note): 5.58 μg/l air; Type [2, 11]: Bottom; Log P (n-octanol/water) [3, 4]: 2.06; Log P (n-octanol/water) ([3]; Table 9, gourmand note): 2.06 |
| COC(=O)OC1CC/C=C\CCC1 (racemic) | 3.69E−04 μg/l air |  |  | Top | 278.83 μg/l air |  | 3.02 |  |
| CCC(C)C(=O)OCCc1ccccc1 (racemic) [(+−)-2-PHENYLETHYL 2-METHYLBUTANOATE] |  | 37.73 μg/l air | Bottom |  |  | 3.64 |  | Odor Threshold [1, 7]: 8.56E−03 μg/l air; Odor Value [1, 7]: 4.41E+03 |
| CCCCCCCCCCO [1-DECANOL] | 1.13E−02 μg/l air |  |  | Bottom | 31.90 μg/l air |  | 4.10 |  |
| C/C=C/C(=O)C1=C(C)C=CCC1(C)C |  |  |  |  |  | 3.33 |  | Odor Threshold ([1]; Table 10, woody note): 3.00E−06 μg/l air; Type [2, 12]: Middle; Volatility ([2]; Table 10, woody note): 91.38 μg/l air; Log P (n-octanol/water) ([3]; Table 10, woody note): 3.33 |
| CC(=O)CCc1ccc(O)cc1 [4-(4-HYDROXY-1-PHENYL)-2-BUTANONE] |  | 0.36 μg/l air | Bottom |  |  | 0.93 |  | Odor Threshold [1, 7]: 2.05E−07 μg/l air; Odor Value [1, 7]: 1.75E+06 |
| CCCOC(C)OCCc1ccccc1 (stereo not shown) [1-PHENYL-2-(1-PROPOXYETHOXY)ETHANE] | 1.52E−03 μg/l air |  |  | Middle | 59.63 μg/l air |  | 3.58 |  |
| CC(CC=O)c1ccccc1 (racemic) [(+−)-3-PHENYLBUTANAL] | 3.89E−04 μg/l air |  |  | Top | 227.83 μg/l air |  | 2.34 |  |
| CCCC(C)C(=O)OCC (racemic) [(+−)-ETHYL 2-METHYLPENTANOATE] | 3.84E−05 μg/l air | 35090.18 μg/l air | TOP (perfuming compounds having a volatility ranging from 70,000 to 100 μg/l in air are referred to as “top notes”) | Top | 35090.18 μg/l air | 3.05 | 3.05 |  |
| CCCC=C1OC(=O)c2ccccc21 [3-BUTYLIDENE-1-BENZO[C]FURANONE] |  |  |  |  |  |  |  | Odor Threshold [1, 4]: 8.65E−04 μg/l air; Odor Value [1, 4]: 1.66E+04; Odor Threshold ([1]; Table 9, gourmand note): 8.65E−04 μg/l air; Volatility [2, 4]: 14.37 μg/l air; Type [2, 5]: Bottom; Volatility ([2]; Table 9, gourmand note): 14.37 μg/l air; Type [2, 11]: Bottom; Log P (n-octanol/water) [3, 4]: 3.12; Log P (n-octanol/water) ([3]; Table 9, gourmand note): 3.12 |
| C=C(C)[C@@H]1CC=C(CO)CC1 | 2.07E−02 μg/l air |  |  | Bottom | 33.78 μg/l air |  | 2.68 |  |
| CC/C=C\CCOC(=O)C(C)CC (racemic) [(+−)-(Z)-3-HEXENYL 2-METHYLBUTANOATE] | 1.96E−02 μg/l air | 833.05 μg/l air | TOP (perfuming compounds having a volatility ranging from 70,000 to 100 μg/l in air are referred to as “top notes”) | Top | 833.05 μg/l air | 3.84 | 3.84 |  |
| C=CC(CCCCC)OC(C)=O (racemic) [(+−)-1-PENTYL-2-PROPENYL ACETATE] |  | 1506.95 μg/l air | TOP (perfuming compounds having a volatility ranging from 70,000 to 100 μg/l in air are referred to as “top notes”) |  |  | 3.79 |  |  |
| COc1ccc(C=O)cc1 [4-METHOXYBENZALDEHYDE] | 1.81E−05 μg/l air |  |  | Middle | 98.47 μg/l air |  | 1.56 |  |
| CCCCC1CCC(=O)O1 (racemic) [(+−)-4-OCTANOLIDE] |  | 108.41 μg/l air | TOP (perfuming compounds having a volatility ranging from 70,000 to 100 μg/l in air are referred to as “top notes”) |  |  | 1.80 |  | Odor Threshold [1, 7]: 2.32E−05 μg/l air; Odor Value [1, 7]: 4.67E+06; Odor Threshold ([1]; Table 9, gourmand note): 2.32E−05 μg/l air; Volatility ([2]; Table 9, gourmand note): 108.41 μg/l air; Type [2, 11]: Top; Log P (n-octanol/water) ([3]; Table 9, gourmand note): 1.80 |
| CC(O)c1ccccc1 (stereo not shown) [1-PHENYL-1-ETHANOL] |  | 470.00 μg/l air | TOP (perfuming compounds having a volatility ranging from 70,000 to 100 μg/l in air are referred to as “top notes”) |  |  | 1.42 |  |  |
| COCCc1ccccc1 [(2-METHOXYETHYL)BENZENE] | 6.32E−04 μg/l air |  |  | Top | 1239.07 μg/l air |  | 2.33 |  |
| CC(=O)CCc1ccccc1 [4-PHENYL-2-BUTANONE] | 2.22E−04 μg/l air | 176.55 μg/l air | TOP (perfuming compounds having a volatility ranging from 70,000 to 100 μg/l in air are referred to as “top notes”) | Top | 176.55 μg/l air | 1.79 | 1.79 |  |
| N#C/C=C/c1ccccc1 [(E)-3-PHENYL-2-PROPENENITRILE] |  |  |  |  |  |  |  | Odor Threshold ([1]; Table 10, woody note): 8.97E−05 μg/l air; Type [2, 12]: Middle; Volatility ([2]; Table 10, woody note): 66.00 μg/l air; Log P (n-octanol/water) ([3]; Table 10, woody note): 1.98 |

Source: US20240301319A1, “PERFUMING COMPOSITIONS” (FIRMNICH SA, priority 2017, published 2024)
